Laboratory results as given in patent US20150216880A1, “INDUCING LACTATION IN NURSING FEMALES” (priority 2014, published 2015).

Tested on: lactation in nursing females
Assay: Topical cream applied to the nipple of a nursing mother; reported milk production
Assay type: in vivo, human
Details: nursing parent with child, 2 ml of Lubriderm Ultra cream with two percent, by volume, stanozolol, left on about two minutes, then washed off
Description: In use, the cream is applied to a nipple prior to breast feeding. Generally, the cream is left on the nipple for about five to about twenty minutes and, usually, for about five to about fifteen minutes.
It is then removed by washing. Then the mother is then ready to being nursing.
A nursing parent having a child with the ability to achieve adequate lactation has applied a 2 ml quantity of a Lubriderm Ultra cream having two percent, by volume, stanozolol added thereto. The so-applied cream is left on for about two minutes. It is then washed off.

C[C@]12Cc3c[nH]nc3C[C@@H]1CC[C@@H]1[C@@H]2CC[C@@]2(C)[C@H]1CC[C@]2(C)O [stanozolol]
milk production (reported by the mother): increase in milk production
